Source: patent US6071884A, “Pharmaceutical compositions and therapeutic methods” (Kirin Beer Kabushiki Kaisha, priority 1992, dated 2000)

How the values were obtained:
[1] = tested on: marrow cells (mononuclear cell fraction); test: Proliferation-stimulating effect on marrow cell of mouse (3H-TdR uptake); type: cell-based, mouse (BALB/c); settings: percentage of control, 72 h; for activity at 0.1 µg/mL: 10^-1 μg/ml; for activity at 0.01 µg/mL: 10^-2 μg/ml; for activity at 0.001 µg/mL: 10^-3 μg/ml; for activity at 1 µg/mL: 10^0 μg/ml
Method in brief: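 Mononuclear marrow cell fraction from 7-week-old female BALB/c mouse thigh bone, 1.5×10^6 cells/ml in 10% FCS RPMI 1640, cultured with test sample 72 h at 37° C. ³H-thymidine (0.5 μCi/well) then added for 8 h; nuclear ³H-TdR uptake counted by liquid scintillation.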

[2] = Life-span-increasing effect on irradiation of a lethal dose of radiation; type: in vivo, mouse (BDF1); settings: 10 mice/group, 9 Gy X-ray, 0.1 mg/kg i.v. days 0, 4, 8
Experimental: Pharmacological Test 4: Life-Span-Increasing Effect on Irradiation of a Lethal Dose of Radiation
An experiment was carried out by using 6 week old female BDF1 mice purchased from Japan SLC Co., Ltd., with 10 mice made one group.
The entire bodies of the entire body of the mice were irradiated with 9 Gy of X-rays by using a Hitachi X-ray irradiator (MBR-1520R), and the day on which the X-ray was irradiated was referred to as "day 0".

blood platelets [3] = test: Thrombocytopenia-inhibiting effect in X-ray-irradiated mice; type: in vivo, mouse (BDF1); settings: 10 days after 5 Gy X-ray; 0.1 mg/kg i.v. within 2 h; mean ± SD; vehicle per series 10.3, 6.8, 6.7; non-treatment 68.2, 96.9, 73.0
Method in brief: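 Female BDF1 mice, 6 weeks old, six per group, given 5 Gy whole-body X-ray, then 0.1 mg/kg i.v. via tail vein within 2 hours. Platelets counted by hemocytometer in fundus-vein blood 10 days later; untreated and vehicle groups run alongside.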

blood platelets [4] = test: Blood-platelet-increasing effect upon normal mouse; type: in vivo, mouse (BDF1); settings: normal mice; 6 days after 0.1 mg/kg i.v.; mean ± SD; vehicle per series 58.2, 63.0, 71.1
Method in brief: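 Female BDF1 mice, 6 weeks old (5 per group), received test sample at 0.1 mg/kg into the caudal vein. Six days later, fundus-vein blood was taken and platelets counted on a multi-channel hemocytometer, compared against vehicle-treated animals.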

Acute toxicity = type: in vivo; settings: 7 days
Experimental: Test Example 2: Acute Toxicity
0.1, 1.0 or 10 mg/kg of Compound 5 or 33 was intravenously administered to Crj:CD rats (male, 5 weeks old), 6 rats in one group. 7 days after the administration, a toxicity test was carried out.

[5] = tested on: mononuclear cell fraction of human umbilical cord blood; test: Proliferation-stimulating effect on mononuclear cell fraction of human umbilical cord blood (3H-TdR uptake); type: cell-based; settings: 96 h, percentage of control, 4 days; for activity at 0.1 µg/mL: 10^-1 μg/ml; for activity at 0.01 µg/mL: 10^-2 μg/ml; for activity at 0.001 µg/mL: 10^-3 μg/ml
Text: Pharmacological Test 3: Proliferation-Stimulating Effect on Mononuclear Cell Fraction of Human Umbilical Cord Blood
It is extremely difficult to obtain human marrow cells. In addition, human umbilical cord blood contains stem cells (Nakahata, T. & Ogwa, M., J. Clin. Inveet. 70, 1324-1328 (1982)), so that it can be a good source of hematopoietic stem/progenitor cell supply (H. E. Broxneyer et al, Proc. Natl. Acad. Sci. USA, 86, 3828-3832 (1989)). For these reasons, the effect on human was examined by using, instead of human marrow cells, human umbilical cord blood.
To human umbilical cord blood was added an equal amount of RPMI 1640. This was placed on a Lymphoprep and centrifugal. The mononuclear cell fraction (MNF) thus obtained was used in the following experiment.
The concentration of the MNF was adjusted to 1×10^6 cells/ml by using an RPMI 1640 added with 10% auto-blood plasma as a culture medium. 10 μl/well of a sample with a predetermined concentration and 100 μl/well of the above-prepared MNF were placed on a round-bottomed 96 well plate and incubated under the conditions of 37° C. and 5% CO2 for 4 days. Thereafter, 0.5 μCi/well of ^3 H-TdR was added. After 8 hour incubation, the cells were harvested, and the amount of the 3H-TdR taken in the nuclei was measured by a liquid scintillation counter.

[6] = day 10, controls per series 10, 10, 10, 10, 10, 8
[7] = day 15, controls per series 8, 9, 5, 5, 7, 1
[8] = day 20, controls per series 4, 5, 1, 2, 3, 0
[9] = day 25, controls per series 3, 3, 0, 0, 2, 0
[10] = day 30, controls per series 1, 1, 0, 0, 0, 0

SMILES	activity at 0.1 µg/mL [1]	activity at 0.01 µg/mL [1]	activity at 0.001 µg/mL [1]	Number of Surviving Mice [2, 6]	Number of Surviving Mice [2, 7]	Number of Surviving Mice [2, 8]	Number of Surviving Mice [2, 9]	Number of Surviving Mice [2, 10]	Number of Surviving Mice ([2]; day 35, all controls 0)	Number of Surviving Mice ([2]; day 40, all controls 0)	Number of Blood Platelets (blood platelets [3])	Number of Blood Platelets (blood platelets [4])	death of rats (Acute toxicity; 10 mg/kg i.v.)	post-mortem examination (Acute toxicity; i.v. 0.1, 1.0 or 10 mg/kg)	activity at 1 µg/mL [1]	activity at 0.1 µg/mL [5]	activity at 0.01 µg/mL [5]	activity at 0.001 µg/mL [5]
CCCCCCCCCCCCCCC[C@@H](O)[C@H](CO[C@H]1O[C@H](CO)[C@H](O)[C@H](O)[C@H]1O)NC(=O)CCCCCCCCCCCCC [Compound 5, (2S,3R)-1-(α-D-galactopyranosyloxy)-2-tetradecanoylamino-3-octadecanol]	377%	261%	234%	10 mice	9 mice	9 mice	9 mice	9 mice	9 mice	9 mice	20.3 ± 4.5 × 10^4 /μl	106.0 ± 9.0 × 10^4 /μl	the rats did not die	no abnormality was found				
CCCCCCCCCCCCCCCCCCCCCC[C@@H](O)C(=O)N[C@@H](CO[C@H]1O[C@H](CO)[C@H](O)[C@H](O)[C@H]1O)[C@H](O)[C@H](O)CCCCCCCCCCCCC [Compound 22, (2S,3S,4R)-1-(α-D-galactopyranosyloxy)-2-[(R)-2-hydroxytetracosanoylamino]-3,4-heptadecanediol]	226%	116%	104%	10 mice	10 mice	10 mice	9 mice	8 mice	8 mice	8 mice	25.4 ± 5.1 × 10^4 /μl	104.1 ± 7.7 × 10^4 /μl			613%	362%	357%	204%
CCCCCCCCCCCCCCCCCCCCCC[C@@H](O)C(=O)N[C@@H](CO[C@H]1O[C@H](CO)[C@H](O)[C@H](O)[C@H]1O)[C@H](O)[C@H](O)CCCCCCCCCCC [Compound 23, (2S,3S,4R)-1-(α-D-galactopyranosyloxy)-2-[(R)-2-hydroxytetracosanoylamino]-3,4-pentadecanediol]	312%	89%	81%	10 mice	10 mice	9 mice	9 mice	9 mice	9 mice	9 mice	21.0 ± 5.9 × 10^4 /μl	108.7 ± 14.8 × 10^4 /μl			761%	402%	344%	197%
CCCCCCCCCCCCCCCCCCCCCCCC[C@@H](O)C(=O)N[C@@H](CO[C@H]1O[C@H](CO)[C@H](O)[C@H](O)[C@H]1O)[C@H](O)[C@H](O)CCCCCCCCCCCCCCCC [Compound 27, (2S,3S,4R)-1-(α-D-galactopyranosyloxy)-2-[(R)-2-hydroxyhexacosanoylamino]-3,4-icosanediol]	220%	165%	156%	10 mice	10 mice	9 mice	9 mice	9 mice	9 mice	9 mice	16.0 ± 4.1 × 10^4 /μl	101.3 ± 7.1 × 10^4 /μl				450%	486%	344%
CCCCCCCCCCCCCCCCCCCCCC[C@H](O)C(=O)N[C@@H](CO[C@H]1O[C@H](CO)[C@H](O)[C@H](O)[C@H]1O)[C@H](O)[C@H](O)CCCCCCCCCCCCC [Compound 28, (2S,3S,4R)-1-(α-D-galactopyranosyloxy)-2-[(S)-2-hydroxytetracosanoylaminol]-3,4-heptadecanediol]	192%	170%	130%	10 mice	10 mice	10 mice	8 mice	8 mice	8 mice	8 mice	20.4 ± 4.5 × 10^4 /μl	103.6 ± 8.8 × 10^4 /μl				356%	331%	182%
CCCCCCCCCCCCCCCCCCCCCCCCCCCC(=O)N[C@@H](CO[C@H]1O[C@H](CO)[C@H](O)[C@H](O)[C@H]1O)[C@H](O)[C@H](O)CCCCCCCCCCCCC [Compound 34, (2S,3S,4R)-1-(α-D-galactopyranosyloxy)-2-octacosanoylamino-3,4-heptadecanediol]	272%	183%	150%	10 mice	10 mice	10 mice	9 mice	9 mice	9 mice	9 mice	24.4 ± 5.6 × 10^4 /μl	110.1 ± 9.0 × 10^4 /μl				467%	258%	291%
